Measurements: PubChem BioAssay AID2060894 (Molecular Pharmacology Branch, DTP, NCI, 2025)

Test system: K12877-001-R-J1-PDC complex spheroid viability
Experiment: Anticancer human tumor K12877-001-R-J1-PDC patient-derived lung adenocarcinoma cell line growth inhibition [RAS]
Settings: for IC50: curve of first compound; for viability, T/C: stronger effect = lower value
How it was run: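 Multi-cell-type spheroids: tumor cells plus HUVEC endothelial cells and mesenchymal stem cells. RAS-pathway inhibitors were combined with targeted agents, each dosed in half-log steps down from clinical Cmax, or from 10 microM when Cmax was unknown.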

[1] = second compound 0.000949 µM, first compound 0.0316 µM
[2] = second compound 0.000949 µM, first compound 0.1 µM
[3] = second compound 0.000949 µM, first compound 0.316 µM
[4] = second compound 0.000949 µM, first compound 1 µM
[5] = second compound 0.003 µM, first compound 0.0316 µM
[6] = second compound 0.003 µM, first compound 0.1 µM
[7] = second compound 0.003 µM, first compound 0.316 µM
[8] = second compound 0.003 µM, first compound 1 µM
[9] = second compound 0.00949 µM, first compound 0.0316 µM
[10] = second compound 0.00949 µM, first compound 0.1 µM
[11] = second compound 0.00949 µM, first compound 0.316 µM
[12] = second compound 0.00949 µM, first compound 1 µM
[13] = second compound 0.03 µM, first compound 0.0316 µM
[14] = second compound 0.03 µM, first compound 0.1 µM
[15] = second compound 0.03 µM, first compound 0.316 µM
[16] = second compound 0.03 µM, first compound 1 µM
[17] = second compound 0.0949 µM, first compound 0.0316 µM
[18] = second compound 0.0949 µM, first compound 0.1 µM
[19] = second compound 0.0949 µM, first compound 0.316 µM
[20] = second compound 0.0949 µM, first compound 1 µM
[21] = second compound 0.3 µM, first compound 0.0316 µM
[22] = second compound 0.3 µM, first compound 0.1 µM
[23] = second compound 0.3 µM, first compound 0.316 µM
[24] = second compound 0.3 µM, first compound 1 µM
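Also: spheroids exposed to agents for one week before readout.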
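For viability, T/C in this document: tumour cells co-cultured with HUVEC and mesenchymal stem cells in spheroids.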

## O=C(c1ccc(F)c(F)c1Nc1ccc(I)cc1F)N1CC(O)([C@@H]2CCCCN2)C1 + C#Cc1c(F)ccc2cc(O)cc(-c3ncc4c(N5CC6CCC(C5)N6)nc(OCC56CCCN5CC(F)C6)nc4c3F)c12
Second compound 0.0316 µM
  IC50: > 1000 nM
Second compound 0.1 µM
  IC50: > 1000 nM
Second compound 0.316 µM
  IC50: > 1000 nM
Second compound 1 µM
  IC50: > 1000 nM
Second compound 3.16 µM
  IC50: > 1000 nM
Second compound 10 µM
  IC50: > 1000 nM
Second compound 0.0316 µM, first compound 0.00316 µM
  viability, T/C: 119%
Second compound 0.0316 µM, first compound 0.01 µM
  viability, T/C: 102%
Second compound 0.0316 µM, first compound 0.0316 µM
  viability, T/C: 102%
Second compound 0.0316 µM, first compound 0.1 µM
  viability, T/C: 81.9%
Second compound 0.0316 µM, first compound 0.316 µM
  viability, T/C: 77.9%
Second compound 0.0316 µM, first compound 1 µM
  viability, T/C: 58%
Second compound 0.1 µM, first compound 0.00316 µM
  viability, T/C: 110%
Second compound 0.1 µM, first compound 0.01 µM
  viability, T/C: 107%
Second compound 0.1 µM, first compound 0.0316 µM
  viability, T/C: 91.5%
Second compound 0.1 µM, first compound 0.1 µM
  viability, T/C: 92.8%
Second compound 0.1 µM, first compound 0.316 µM
  viability, T/C: 82.3%
Second compound 0.1 µM, first compound 1 µM
  viability, T/C: 57.1%
Second compound 0.316 µM, first compound 0.00316 µM
  viability, T/C: 108%
Second compound 0.316 µM, first compound 0.01 µM
  viability, T/C: 104%
Second compound 0.316 µM, first compound 0.0316 µM
  viability, T/C: 94.9%
Second compound 0.316 µM, first compound 0.1 µM
  viability, T/C: 84.7%
Second compound 0.316 µM, first compound 0.316 µM
  viability, T/C: 74%
Second compound 0.316 µM, first compound 1 µM
  viability, T/C: 62.9%
Second compound 1 µM, first compound 0.00316 µM
  viability, T/C: 105%
Second compound 1 µM, first compound 0.01 µM
  viability, T/C: 116%
Second compound 1 µM, first compound 0.0316 µM
  viability, T/C: 87.9%
Second compound 1 µM, first compound 0.1 µM
  viability, T/C: 93.7%
Second compound 1 µM, first compound 0.316 µM
  viability, T/C: 77.7%
Second compound 1 µM, first compound 1 µM
  viability, T/C: 58.1%
Second compound 3.16 µM, first compound 0.00316 µM
  viability, T/C: 110%
Second compound 3.16 µM, first compound 0.01 µM
  viability, T/C: 103%
Second compound 3.16 µM, first compound 0.0316 µM
  viability, T/C: 92.8%
Second compound 3.16 µM, first compound 0.1 µM
  viability, T/C: 86.5%
Second compound 3.16 µM, first compound 0.316 µM
  viability, T/C: 75.7%
Second compound 3.16 µM, first compound 1 µM
  viability, T/C: 62.9%
Second compound 10 µM, first compound 0.00316 µM
  viability, T/C: 102%
Second compound 10 µM, first compound 0.01 µM
  viability, T/C: 84.4%
Second compound 10 µM, first compound 0.0316 µM
  viability, T/C: 82.8%
Second compound 10 µM, first compound 0.1 µM
  viability, T/C: 85.6%
Second compound 10 µM, first compound 0.316 µM
  viability, T/C: 78.9%
Second compound 10 µM, first compound 1 µM
  viability, T/C: 63.8%

## Cc1nc(N2CCC3(CC2)COC(C)C3N)c(CO)nc1Sc1ccnc(N)c1Cl (stereo unspecified) + CCn1c(-c2cccnc2C(C)OC)c2c3cc(ccc31)N1CCOC(CC(NC(=O)C(C(C)C)N(C)C(=O)C3(F)CCN(C(=O)C#CC(C)(C)N(C)C)CC3)C(=O)N3CCCC(N3)C(=O)OCC(C)(C)C2)C1
Second compound 0.000949 µM
  IC50: 6230 nM
Second compound 0.003 µM
  IC50: 1850 nM
Second compound 0.00949 µM
  IC50: 2630 nM
Second compound 0.03 µM
  IC50: 875 nM
Second compound 0.0949 µM
  IC50: 1200 nM
Second compound 0.3 µM
  IC50: 424 nM
[1]
  viability, T/C: 83.6%
[2]
  viability, T/C: 71.1%
[3]
  viability, T/C: 71.5%
[4]
  viability, T/C: 62.5%
Second compound 0.000949 µM, first compound 3.16 µM
  viability, T/C: 52.8%
Second compound 0.000949 µM, first compound 10 µM
  viability, T/C: 47.3%
[5]
  viability, T/C: 73.6%
[6]
  viability, T/C: 66.2%
[7]
  viability, T/C: 69.8%
[8]
  viability, T/C: 55.6%
Second compound 0.003 µM, first compound 3.16 µM
  viability, T/C: 45.6%
Second compound 0.003 µM, first compound 10 µM
  viability, T/C: 44%
[9]
  viability, T/C: 76.4%
[10]
  viability, T/C: 76%
[11]
  viability, T/C: 57.8%
[12]
  viability, T/C: 57.4%
Second compound 0.00949 µM, first compound 3.16 µM
  viability, T/C: 50.2%
Second compound 0.00949 µM, first compound 10 µM
  viability, T/C: 42.1%
[13]
  viability, T/C: 83.2%
[14]
  viability, T/C: 73.5%
[15]
  viability, T/C: 59.2%
[16]
  viability, T/C: 49.4%
Second compound 0.03 µM, first compound 3.16 µM
  viability, T/C: 40.7%
Second compound 0.03 µM, first compound 10 µM
  viability, T/C: 36.5%
[17]
  viability, T/C: 72.6%
[18]
  viability, T/C: 70.8%
[19]
  viability, T/C: 58.3%
[20]
  viability, T/C: 48.5%
Second compound 0.0949 µM, first compound 3.16 µM
  viability, T/C: 46.4%
Second compound 0.0949 µM, first compound 10 µM
  viability, T/C: 33.8%
[21]
  viability, T/C: 57.1%
[22]
  viability, T/C: 67.9%
[23]
  viability, T/C: 53.3%
[24]
  viability, T/C: 38.3%
Second compound 0.3 µM, first compound 3.16 µM
  viability, T/C: 37.5%
Second compound 0.3 µM, first compound 10 µM
  viability, T/C: 31.2%

## CCN1CCN(Cc2ccc(Nc3ncc(F)c(-c4cc(F)c5nc(C)n(C(C)C)c5c4)n3)nc2)CC1 + CCn1c(-c2cccnc2C(C)OC)c2c3cc(ccc31)N1CCOC(CC(NC(=O)C(C(C)C)N(C)C(=O)C3(F)CCN(C(=O)C#CC(C)(C)N(C)C)CC3)C(=O)N3CCCC(N3)C(=O)OCC(C)(C)C2)C1
Second compound 0.000949 µM
  IC50: 286 nM
Second compound 0.003 µM
  IC50: 229 nM
Second compound 0.00949 µM
  IC50: 154 nM
Second compound 0.03 µM
  IC50: 146 nM
Second compound 0.0949 µM
  IC50: 132 nM
Second compound 0.3 µM
  IC50: 160 nM
Second compound 0.000949 µM, first compound 0.00316 µM
  viability, T/C: 73.5%
Second compound 0.000949 µM, first compound 0.01 µM
  viability, T/C: 80.4%
[1]
  viability, T/C: 74.3%
[2]
  viability, T/C: 61.5%
[3]
  viability, T/C: 50.1%
[4]
  viability, T/C: 31.5%
Second compound 0.003 µM, first compound 0.00316 µM
  viability, T/C: 71.8%
Second compound 0.003 µM, first compound 0.01 µM
  viability, T/C: 76.9%
[5]
  viability, T/C: 68.8%
[6]
  viability, T/C: 69.9%
[7]
  viability, T/C: 42.3%
[8]
  viability, T/C: 28.9%
Second compound 0.00949 µM, first compound 0.00316 µM
  viability, T/C: 66%
Second compound 0.00949 µM, first compound 0.01 µM
  viability, T/C: 77.1%
[9]
  viability, T/C: 66.5%
[10]
  viability, T/C: 56.8%
[11]
  viability, T/C: 39.2%
[12]
  viability, T/C: 34%
Second compound 0.03 µM, first compound 0.00316 µM
  viability, T/C: 74.2%
Second compound 0.03 µM, first compound 0.01 µM
  viability, T/C: 76.5%
[13]
  viability, T/C: 69.6%
[14]
  viability, T/C: 51.8%
[15]
  viability, T/C: 45.4%
[16]
  viability, T/C: 36.3%
Second compound 0.0949 µM, first compound 0.00316 µM
  viability, T/C: 76.8%
Second compound 0.0949 µM, first compound 0.01 µM
  viability, T/C: 65.5%
[17]
  viability, T/C: 58.5%
[18]
  viability, T/C: 61.6%
[19]
  viability, T/C: 36.4%
[20]
  viability, T/C: 25.4%
Second compound 0.3 µM, first compound 0.00316 µM
  viability, T/C: 67.2%
Second compound 0.3 µM, first compound 0.01 µM
  viability, T/C: 59.1%
[21]
  viability, T/C: 59.3%
[22]
  viability, T/C: 58%
[23]
  viability, T/C: 39.3%
[24]
  viability, T/C: 27.4%
